The source of these data is patent publication US12084437B2, “Halo-substituted piperidines as orexin receptor modulators” (AstraZeneca AB, priority 2016, dated 2024).

Data set [1] can be described thus: Metabolic stability and intrinsic clearance in rat hepatocytes. It is filed as in vitro ADME. The conditions noted are these: cryopreserved rat hepatocytes (suspension), 1 uM compound, 37 C, read-out: rHeps CLint. As for the experimental part:
Stock solutions of compounds and control compounds were prepared in 10 mM in appropriate solvent, such as DMSO. L-15 medium was placed in a 37° C. water bath and allowed to warm for at least 15 minutes prior to use. A quenching plate was prepared by adding 80 μL of acetonitrile to each well of a 96-well plate. In a new 96-well plate, the 10 mM stock solution of test compounds and control compounds were diluted to 100 μM by combining 198 μL of acetonitrile and 2 μL of the 10 mM stock. A vial of cryopreserved rat hepatocytes were removed from storage and maintained at cryogenic temperatures until thawing. The cells were thawed as quickly as possible, in a 37° C. water bath under gentle shaking. The vials were kept in the water bath until all ice crystals have dissolved and are no longer visible. After the thawing was completed, the vials were sprayed with 70% ethanol and transferred to a biosafety cabinet. […]
Cells were then counted with Cellometer® Vision. […] Counted cells were then diluted with incubation medium to a working cell density of 1.0×10^6 viable cells/mL. […]
All calculations were carried out using Microsoft Excel. Peak areas were determined from extracted ion chromatograms. in vitro half-life (t½) of parent compound was determined by regression analysis of the Ln percent parent disappearance vs. time curve.

Data set [2] can be described thus: Metabolic stability and intrinsic clearance in human liver microsomes. It counts as in vitro ADME. To be noted: pooled human liver microsomes, NADPH, 1 uM compound, 37 C; read-out: hMics CLint. As for the experimental part: Human Liver Microsomes (HLM) were obtained from BD Gentest UltraPool 150 donor (Lot no. 38289) at a concentration of 20 mg/mL protein. HLMs are stored in a −80° C. freezer. Prior to use, the pooled HLM were removed from the freezer and allowed to thaw in a 37° C. water bath and then stored on wet ice. 100 μmol/L test compound solution and positive control (PC) solutions (phenacetin, verapamil, diclofenac, imiprimine, benzydamine and metoprolol) were prepared by adding 2 μL of 10 mmol/L stock solution in DMSO to 198 μL of acetonitrile. HML mixtures were prepared by adding 1325 μL of 20 mg/mL HLM to 22260 μL of phosphate buffer to obtain the HLM mixture at 1.1236 mg/mL. Prior to testing the compounds, 222.5 μL of 1.1236 mg/mL HLM mixtures and 25 μL of the 10 mM NADPH were mixed in the incubation plates on a whirly mixer for 10 seconds. The incubation plates were pre-warmed at 37° C. for 8 min. […]
Quantitative LC-MS analysis were carried out with an API 4000 (AB sciex, USA) Ultra mass spectrometer at MRM mode (MS/MS). Peak areas were determined from extracted ion chromatograms. Percent parent remaining was calculated from peak area of test compound or PC. The slope value, k, was determined by linear regression of the natural logarithm of percent parent remaining vs. incubation time curve. […]
The in vitro half-life (in vitro t1/2) was determined from the slope value: in vitro t½=−(0.693/k). […]
Background: Liver microsomes are vesicles of endoplasmic reticulum, rich in cytochrome P450 enzymes.

`C[C@@H]1CC(F)(F)CN(C(=O)c2nn(C)cc2-c2ccc(Cl)cc2)[C@@H]1CNc1cnc(C(F)(F)F)cn1` [Compound 129, (4-(4-chlorophenyl)-1-methyl-1H-pyrazol-3-yl)((2S,3R)-5,5-difluoro-3-methyl-2-(((5-(trifluoromethyl)pyrazin-2-yl)amino)methyl)piperidin-1-yl)methanone]: the hepatocyte CLint at 1 µM in data set [1] was found to be 3.8 µL/min/1e6 cells. The microsomal CLint at 1 µM in data set [2] was below 3 µL/min/mg.

On to `Cc1nc(C(=O)N2CC(F)(F)C[C@@H](C)[C@H]2CNc2ccc(C(F)(F)F)cn2)c(-c2ccc(F)cc2)s1` [Compound 185, ((2S,3R)-5,5-difluoro-3-methyl-2-(((5-(trifluoromethyl)pyridin-2-yl)amino)methyl)piperidin-1-yl)(5-(4-fluorophenyl)-2-methylthiazol-4-yl)methanone], for which, in data set [1], the hepatocyte CLint at 1 µM came out at 107 µL/min/1e6 cells. For the same compound, the microsomal CLint at 1 µM in data set [2] worked out at 29 µL/min/mg.
